In US8552135B2, “Substituted polyalkoxysiloxane compositions and methods of use” (One Unlimited, Inc., priority 2006, dated 2013):

System: Pseudomonas aeruginosa
Assay: burn wound infection treated with Nu-3 applied with glycerol polysiloxanes
Assay type: in vivo
Conditions: burn wound infections
Description: A particularly important medical treatment application is the healing effect of some of the hydrophilic substituted polydialkoxysiloxanes on radiation burn injuries. Skin irritation and burning is common in cases where patients undergo radiation treatment associated with certain cancers. Topical application of glycerol substituted polydialkoxysilane compositions relieves pain and accelerates healing compared to treatment with commonly used burn or cortisone ointments. […] Nubiotics are a new class of antibiotic agents with broad spectrum activity.

Compound: CCCCOP(=O)(O)OC[C@H]1O[C@@H](n2cc(C)c(=O)[nH]c2=O)C[C@@H]1OP(=O)(O)O [Nu-3, butyl-phosphate-5′-thymidine-3′-phosphate]
- antibacterial effectiveness of Nu-3 when applied with glycerol polysiloxanes: only a slight decrease in antibacterial effectiveness
